Measured values reported in patent US5989521A, “Method for augmenting a decreased level of reduced glutathione in the lung” (The United States of America as represented by the …, priority 1991, dated 1999).
Like-named read-outs stand apart in the source and are kept apart here.

What was measured:
[1] = in vivo
Description: To evaluate possible toxicity of the glutathione aerosol, symptoms, physical examination, routine blood studies, chest x-ray, electrocardiogram, renal function, arterial blood gases, and tests of pulmonary function (forced vital capacity, forced expiratory volume in one second, total lung capacity, diffusing capacity) were followed carefully throughout the study. In addition, visual examination of the respiratory mucosa and analysis of differential cell count in bronchoalveolar lavage fluid were performed before the first aerosol and after administration of the last aerosol.
Study Design. Venous plasma and bronchoalveolar lavage fluid were obtained before GSH administration. An aerosol of 600 mg GSH in 4 ml of saline was then administered over a 25 min period twice a day for three days. Following the last aerosol, venous plasma and bronchoalveolar lavage fluid were again obtained at intervals up to 3 hr after the last aerosol. All measurements were carried out in duplicate.

[2] = preparation reconstituted in 0.9% saline; cited from earlier work
[3] = system: cytotoxic T-lymphocyte cell line CT-4R
Description: (§1) T-lymphocyte Proliferation Assays. Cell proliferation in the presence of pre-aerosol compared to post-aerosol concentrations of reduced glutathione was tested on the cytotoxic T-lymphocyte cell lines CT-4R and CTLL-2 (Liang, C-M. et al. (1989) J Biol Chem 264:13519-13523). In 96-well flat bottom plates were placed 50,000 cells of the respective cell lines, suspended in 200 μl Dulbecco's Modified Eagle Medium with 10% fetal calf serum, with either 150 μM or 280 μM reduced glutathione added. The IL-2 dependent cell line CTLL-2 had 0.3 units/ml IL-2 (Genzyme) added in each well. After 18 hr culture in a 10% CO2 incubator at 37° C., 0.5 μCi of ^3 H-thymidine was added for 4 hr, followed by harvesting of cells onto glass fiber filters and scintillation counting for 1 minute. All proliferation assays were done in triplicate.

[4] = system: cytotoxic T-lymphocyte cell line CTLL-2; conditions: 0.3 units/ml IL-2
Description: as §1

[5] = remark: listed apart in the source
Description: (§2) Ten individuals with IPF (6 male, 4 female, 46±3 yr) defined by standard clinical criteria (Crystal, R. G. et al. (1984) N. Engl. J. Med. 310: 154-166, and 310: 235-244; Turner-Warwick, M. et al. (1980) Thorax. 35: 171-180) received aerosolized GSH; 19 normal nonsmokers (14 male, 5 female, 36±3 yr) (Buhl, R. et al. (1989) Lancet. 2: 1294-1298) served as controls for GSH levels. […] An aerosol of 600 mg GSH was administered every 12 hr for 3 days. Respiratory ELF, obtained by lavage, was evaluated before therapy, and 1 hr after the first or last (sixth) aerosol, and plasma before and 1 hr after the last aerosol. Total glutathione, oxidized glutathione (GSSG) and reduced glutathione (GSH) levels in ELF and plasma were quantified as previously described (Buhl, R. et al. (1990) Proc. Natl. Acad. Sci. USA. 87:4063-4067; Buhl, R. et al. (1989) Lancet. 2: 1294-1298). Spontaneous O2^- release from adherent alveolar macrophages was measured by the reduction of ferricytochrome C (Buhl, R. et al. (1990) Proc. Natl. Acad. Sci. USA. 87:4063-4067). All data are presented as mean ± standard error of the mean. The two-tailed Student's t-test was used to compare ELF glutathione levels in normal and IPF individuals and the results presented as exact p values and degrees of freedom (df). The Wilcoxon paired nonparametric test was used to compare pre- and post-aerosol therapy ELF GSH levels and spontaneous O2^- release by alveolar macrophages, and the results presented as exact p values.

alveolar macrophages = conditions: 600 mg twice daily for 3 days, 1 hr after last dose, all individuals (p=0.02)
Description: as §2

[6] = in vivo; remark: listed apart in the source
Description: Study Population. The study population included 13 male and 1 female HIV-seropositive individuals (average age 32±2 yr)(all data are presented as mean ± standard error of the mean; all statistical comparisons were made using the two-tailed Student's t-test). The diagnosis of HIV infection was confirmed by ELISA and Western blot analysis. All belonged to defined risk groups (13 homosexuals, 1 with heterosexual contact with an infected partner). None were smokers, 9 were untreated, and 5 were receiving azidothymidine, and two were receiving once monthly pentamidine by aerosol.
Biologic Samples. Venous plasma and bronchoalveolar lavage fluid were obtained by standard technique (Saltini, C. et al. (1984) Am Rev Resp Dis 130:650-658). Portions of the lavage fluid were taken for glutathione assays (see below), cell counts (total cell and CD4+ and CD8+ subtypes), and for cytocentrifuge preparations for differential counts. The cells were pelleted and the supernatant was used to quantify the amount of ELF recovered using the urea method (Rennard, S.I. et al. (1986) J Appl Physiol 60:532-538).
Study Design. […]
Glutathione Levels and Form. Glutathione levels in venous plasma, and bronchoalveolar lavage fluid were quantified with minor modifications of standard methods, as previously described (Buhl, R. et al (1989) Lancet 2:1294-1298).

[7] = intravenous administration; cited from earlier work

For `N[C@@H](CCC(=O)N[C@@H](CS)C(=O)NCC(=O)O)C(=O)O` [GSH, L-γ-glutamyl-L-cysteinyl-glycine], the “inflammation of the lower respiratory tract” value [1] was “did not result in inflammation”, the “physical examination and all clinical studies” value [1] was “remained stable” and the “pulmonary function tests and arterial blood gases” value [1] was “unchanged”. The “effect of aerosolization on the form of the GSH” value [2] was “did not alter the form”, the “mass median aerodynamic diameter of the aerosol droplets” value (150 mg/ml GSH in 0.9% NaCl, nebulizer at 40 psi, laser particle-size analysis) was 2.8 μm and the “glutathione in the reduced form” value (in the aerosolized droplets) was 97.0±0.6%. The “glutathione in the reduced form” value (pre-aerosol preparations) was 98.2±0.1%, the “proliferation (3H-thymidine incorporation)” value (“proliferation” below) ([3]; 150 μM reduced glutathione (pre-therapy concentration)) was 7478±550 cpm and the “proliferation” value ([3]; 280 μM reduced glutathione (post-therapy concentration)) was 10,752±376 cpm. The “proliferation” value ([4]; CTLL-2, 150 μM reduced glutathione) was 5077±69 cpm, the “proliferation” value ([4]; CTLL-2, 280 μM reduced glutathione) was 5792±219 cpm and the “adverse effects associated with GSH aerosol administration” value ([5]; 600 mg every 12 hr for 3 days) was “No adverse effects”. For the same compound, the “ELF oxidized glutathione compared to baseline” value ([5]; 600 mg twice daily for 3 days, 1 hr after last dose, all individuals (p=0.02)) was “significant increase”, the “total glutathione in ELF versus pre-therapy” value ([5]; 1 hr after the first aerosol of 600 mg GSH (p=0.005)) was “increased” and the “plasma glutathione levels following aerosolization” value ([5]; 1 hr after the last aerosol (p=0.59)) was “did not change”. The “average level of total glutathione in ELF versus pre-therapy” value ([5]; after repeated dosing for 3 days, 1 hr after last aerosol (p=0.55)) was “higher than the pre-therapy level, but not significantly so”, the “spontaneous O2- release by alveolar macrophages” value (alveolar macrophages) was “decrease” and the “oxidized glutathione as percentage of total glutathione in ELF” value [6] was 44±18%. For the same compound, the serum half-life [7] was less than 2 min.
